In paper PMC7259758 (PLoS ONE, 2020):
Where two headings read alike, the source gives them in different places. Each block holds one molecule with its values, some of them ahead of it.

Tests used:
[1] = molecular target: T1, SF3B1 (Homo sapiens, UniProt O75533+Q7RTV0); assay: Competitive antagonist assay (TESLR in the presence of SD6 or hit compound); format: cell-based; details: 1 h pre-treatment with analog, then 4 μM SD6 for another 4 hours; read-out: IC50 for antagonism of SD6 activity in the TESLR assay
T1 construct: endogenous in cells
Description: SK-MEL-2/Luc-MDM2 stable cells were plated at a density of 20,000 cells/well in 96-well plates and incubated overnight at 37°C in 5% CO2.[27, 28] The following day, cells were treated with 14 analogs using serial dilution for one hour. The list of compounds screened as potential TESLR antagonists are show in SI file. After one-hour pre-treatment, 4 μM of SD6 were added to the pre-treated cells for another 4 hours. Either 0.5% DMSO or serial dilutions of SD6 were used to treat cells for 4 hours as controls. At the end of incubation time, ONE-Glo™ EX reagents (Promega) were added to measure the luciferase activity. […]
Fig 6 Competitive antagonist assay. (Left Panel) The assay that identified two antagonists of SD6 activity in the TESLR screen, which are useful for the determination of SF3B1 binding. Relative luminescent units were plotted against corresponding drug concentrations and fitted with a standard four parameter sigmoidal curve with GraphPad Prism. (Right Panel) The structures of the antagonists and SD6. See SI for chemistry details.
. SK-MEL-2/Luc-MDM2 stable cells were plated at a density of 20000/well in 96-well plates and incubated overnight at 37°C in 5% CO2. […]. After one-hour pre-treatment, serial dilutions of the sudemycinol C were added to the pre-treated cells for another 4 hours. […]. At the end of incubation time, ONE-Glo™ EX reagents (Promega) were added to measure the luciferase activity. […]. DR: dose response.

[2] = tested on: triple-exon skipping of MDM2 pre-mRNA in SK-MEL-2/Luc-MDM2 cells; assay: TESLR (Triple Exon Skipping Luciferase Reporter) dose response; details: for TESLR Maximum fold change: 4 hours; for EC50: read-out: TESLR EC50
[3] = tested on: phosphorylation of SR proteins; assay: Western blot of nuclear extracts, phosphor-SR proteins; details: HCT116 and Rh18 cells, 4 h; SD6 10 μM, compound 1 10 μM, compound 2 5 μM, compound 3 10 μM
[4] = tested on: MDM2 pre-mRNA splicing in Rh18 cells; assay: RT-PCR confirmation of splicing changes, MDM2; format: cell-based; details: 4 h, SD6 10 μM, compound 1 10 μM, compound 2 5 μM, compound 3 10 μM
Description: RH-18 cells were cultured in RPMI 1640 medium containing 10% FCS. Cells are all maintained in humidified incubator with 5% CO2 at 37°C. Rh18 cells were exposed to 0.5% DMSO or SD6 10 μM, Cpd1 10 μM, Cpd2 5 μM or Cpd3 10 μM for 4 h. Total RNA was extracted and converted to cDNA. PCR was performed using NEB Q5 Master Mix and specific primers listed below (Table 2) according to the manufacturer’s instruction and standard PCR protocols: 50 ng cDNA and 30 μl of the final reaction volume was used. PCR products were subjected to 3% agarose gel electrophoresis.
AS patterns were identified with compound treatment for MDM2 and RBM39 transcripts. Ubiquitin (UBQ) transcripts were used as a control since these are not spliced. […] Rh18 cells were treated with either DMSO control or compounds for 4 h. Total RNA was extracted and converted to cDNA. PCR was performed using corresponding primers and PCR products were subjected to 3% agarose gel electrophoresis.

[5] = tested on: phosphorylation of SF3B1; assay: Western blot of nuclear extracts, phosphor-SF3B1; details: HCT116 and Rh18 cells, 4 h; SD6 10 μM, compound 1 10 μM, compound 2 5 μM
[6] = SK-MEL-2/Luc-MDM2 cells, luciferase activity

SMILES: CC(C=CC1CC2(CO2)CC(C)(C)O1)=CCC1OCC(NC(=O)C=CC(C)O)CO1 (stereo not drawn) [Sudemycinol E, sudemycinol E]
IC50 [1]: 16.1 µM

EC50 ([2]; SK-MEL-2/Luc-MDM2 cells, 4 hour treatment, luciferase activity): 15 µM
SMILES: COc1ncc2cc(C(=O)Nc3cc(C(=O)NCc4cccc(Cl)c4)ccc3Cl)c(=O)[nH]c2n1 [Mirk-IN-1]
TESLR Maximum fold change [2, 6]: 30.7

SMILES: CC(C=CC1CC2(CO2)CC(C)(C)O1)=CCC1CCC(NC(=O)C=CC(C)O)CC1 (stereo not drawn) [Sudemycinol C, sudemycinol C]
IC50 [1]: 0.97 µM

SMILES: CNC(=O)OC(C)C=CC(=O)NC1CCC(CC=C(C)C=CC2CC3(CO3)CC(C)(C)O2)CC1 (stereo not drawn) [SD6, sudemycin D6]
Effect on phosphorylation of SR proteins (immunoblot) [3]: did not inhibit the phosphorylation of SR proteins | MDM2 alternative splicing (AS) pattern by RT-PCR [4]: dominant AS isoform at size of 1019 bp | EC50 ([2]; Homo sapiens, SK-MEL-2, 4 h): 0.862 µM | TESLR Maximum fold change [2, 6]: 28.3 | Effect on phosphorylation of SF3B1 (immunoblot) [5]: did inhibit the phosphorylation of SF3B1
